{"source": "patent US9371527B2", "about": "“Compositions and methods related to protein displacement therapy for myotonic distrophy” (University of Rochester, priority 2006, dated 2016)", "key": {"[1]": {"test_system": "nuclear foci containing CUG^exp RNA and MBNL1 protein", "assay": "FISH and immunofluorescence of ribonuclear inclusions after ClC-1 antisense morpholino", "format": "in vivo, HSA^LR mice", "details": "TA muscle, 3 weeks after injection; listed as antisense morpholino"}, "[2]": {"assay": "Tissue uptake and distribution of carboxyfluorescein-labeled antisense morpholino", "format": "in vivo, HSA^LR mice", "details": "for subcellular localization of antisense morpholino: muscle fibers, TA 3 weeks / FDB day 5", "experimental": "Antisense morpholino targeting the 3′ splice junction of ClC-1 exon 7a was injected into foot pad muscle of HSA^LR mice under general anesthesia. Uptake into muscle fibers was enhanced by in vivo electroporation. The morpholino was tagged with fluorescein. 4 days later, individual FDB muscle fibers were isolated. […] As a control, the opposite footpad was injected with morpholino having the inverted sequence. […] The peak current density in HSA^LR mice (center panel) is much lower than in wild-type mice (left panel). However, after morpholino treatment in HSA^LR mice (right panel), the current density is restored to levels that are similar to wild-type mice. […] The antisense morpholino (closed squares) restores chloride current density to normal levels (open circles or triangles).\nThe morpholino was complementary to the 3′ splice site of ClC-1 pre-mRNA. Muscle fibers are outlined by wheat germ agglutinin (wga) and nuclei are highlighted by DAPI. FIGS. 24D and 24 E show brightfield (D) and fluorescence (E) images of a single FDB fiber showing preferential nuclear localization of the antisense morpholino (post injection day 5). […] Bars=20 μM.\nThe strategy for suppressing the inclusion of exon 7a is diagrammed in FIG. 23A. The morpholino AONs were complementary to the 3′ or 5′ splice sites of exon 7a in the ClC-1 pre-mRNA (FIG. 23B). To examine tissue uptake, a carboxyfluorescein-labeled morpholino was injected into tibialis anterior (TA) muscle of HSA^LR mice. […] To improve uptake and distribution of AON, voltage pulses were used to electroporate muscle fibers after the AON injection.\nHSA^LR (Mankodi, A., et al. (2000) Science 289:1769-1773) or Mbnl1^ΔE3/ΔE3 mice (Kanadia, R. N., et al. (2003) Science 302:1978-1980) were anesthetized by intraperitoneal injection of 100 mg/kg ketamine, 10 mg/kg xylazine, and 3 mg/kg acepromazine. TA muscle was pretreated by intramuscular injection of bovine hyaluronidase (15 μl, 0.4 U/μl) (Sigma) (McMahon, J. M., et al. (2001) Gene Ther 8:1264-1270). Two hours later, 10 or 20 μg of morpholino in a total volume of 20 μl phosphate buffered saline (PBS) was injected using a 30-gauge needle. TA muscle was then electroporated using electrodes placed parallel to the long axis of the muscle. Electroporation parameters were 100 V/cm, 10 pulses at 1 Hz, and 20 ms duration per pulse. Antisense or control morpholino with inverted sequence was injected into TA muscles of opposite limbs. The determination of which TA received antisense morpholino was randomized, and investigators remained blinded to this assignment until EMG analyses were completed. Other analyses were performed without blinding. For experiments to determine the distribution of injected oligos, the antisense morpholino was labeled with carboxyfluorescein and cryosections of muscle (10 μM) were examined by fluorescence microscopy, with or without fixation in 4% paraformaldehyde. Some sections were co-labeled with TRITC-wheat germ agglutinin (Parsons, S. A., et al. (2003) Mol Cell Biol 23:4331-4343) (50 μg/ml in PBS; Sigma) and 4′,6-diamidino-2-phenylindole (DAPI) to highlight the surface membranes and nuclei of muscle fibers."}}, "note": "“Also recorded” adds a separate entry of the source.", "data": [{"substance": "antisense 1: morpholino 5′-CCAGGCACGGTCTGCAACAGAGAAG-3′ targeting the 3′ splice site of ClC-1 exon 7a (all phosphorodiamidate morpholino (PMO))", "values": [{"measurement": "formation of ribonuclear inclusions (CUG^exp RNA and MBNL1 foci)", "setting": "[1]", "result": "did not affect the formation of nuclear foci; also recorded: no effect on the formation of ribonuclear inclusions"}, {"measurement": "fibers showing fluorescein uptake", "setting": "[2]; FDB fibers, 4 days after foot pad injection + electroporation", "result": "Greater than 90%"}, {"measurement": "tissue uptake of antisense morpholino", "setting": "[2]; TA injection followed by electroporation", "result": "throughout the TA muscle"}, {"measurement": "tissue uptake of antisense morpholino", "setting": "[2]; TA injection without electroporation", "result": "limited to the needle track"}, {"measurement": "subcellular localization of antisense morpholino", "setting": "[2]; listed as AON", "result": "accumulate preferentially in the nucleus"}, {"measurement": "subcellular localization of antisense morpholino", "setting": "[2]; listed as antisense morpholino", "result": "localizes preferentially to muscle nuclei"}]}]}
